According to ChEMBL document CHEMBL1201862, “PubChem BioAssay data set” (2004):
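Tested at 5 concentrations; 48 h exposure; 96-well plates; endpoints linearly interpolated, else capped at highest concentration. Abbreviation: GI50, concentration required for 50% inhibition of growth.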 The source made the active and inactive calls. No stated cut-off is given here; in the data, active = GI50 up to about 1.1 µM and inactive = higher.

How the values were obtained:
Test in all cases: inhibition of tumour cell growth, NCI panel, 48 h
SK-OV-3 = tested on: SK-OV-3
HOP-62 = tested on: HOP-62
SF-268 = tested on: SF-268
NCI/ADR-RES = tested on: NCI/ADR-RES
K562 = tested on: K562
SK-MEL-2 = tested on: SK-MEL-2
SK-MEL-5 = tested on: SK-MEL-5
HCC 2998 = tested on: HCC 2998
HOP-92 = tested on: HOP-92
LOX IMVI = tested on: LOX IMVI
SF-295 = tested on: SF-295
MDA-MB-435 = tested on: MDA-MB-435
Malme-3M = tested on: Malme-3M
IGROV-1 = tested on: IGROV-1
ACHN = tested on: ACHN
NCI-H522 = tested on: NCI-H522
RXF 393 = tested on: RXF 393
Hs-578T = tested on: Hs-578T
PC-3 = tested on: PC-3
786-0 = tested on: 786-0
KM12 = tested on: KM12
MOLT-4 = tested on: MOLT-4
A498 = tested on: A498
OVCAR-8 = tested on: OVCAR-8
SN12C = tested on: SN12C
DU-145 = tested on: DU-145
CAKI-1 = tested on: CAKI-1
MDA-MB-231 = tested on: MDA-MB-231
SW-620 = tested on: SW-620
OVCAR-3 = tested on: OVCAR-3
HCT-15 = tested on: HCT-15
HCT-116 = tested on: HCT-116
HT-29 = tested on: HT-29
U-251 = tested on: U-251
SR = tested on: SR
OVCAR-4 = tested on: OVCAR-4
SK-MEL-28 = tested on: SK-MEL-28
TK-10 = tested on: TK-10
EKVX = tested on: EKVX
UACC-62 = tested on: UACC-62
SNB-19 = tested on: SNB-19
NCI-H23 = tested on: NCI-H23
RPMI-8226 = tested on: RPMI-8226
T47D = tested on: T47D
NCI-H460 = tested on: NCI-H460
UACC-257 = tested on: UACC-257
COLO 205 = tested on: COLO 205
A549 = tested on: A549
M14 = tested on: M14
OVCAR-5 = tested on: OVCAR-5
BT-549 = tested on: BT-549
CCRF-CEM = tested on: CCRF-CEM
UO-31 = tested on: UO-31
HL-60 = tested on: HL-60
MDA-N = tested on: MDA-N
MCF7 = tested on: MCF7
SNB-75 = tested on: SNB-75
NCI-H226 = tested on: NCI-H226
SF-539 = tested on: SF-539

Measured: GI50

[O-]c1c[n+](CC[n+]2cc([O-])on2)no1
> 100 µM: HCT-15
inactive: SK-OV-3 > 100 µM | HOP-62 > 100 µM | SF-268 > 100 µM | NCI/ADR-RES > 100 µM | K562 > 100 µM | SK-MEL-2 > 100 µM | SK-MEL-5 > 100 µM | HCC 2998 > 100 µM | HOP-92 > 100 µM | LOX IMVI > 100 µM | SF-295 > 100 µM | MDA-MB-435 > 100 µM | Malme-3M > 100 µM | IGROV-1 > 100 µM | ACHN > 100 µM | NCI-H522 > 100 µM | RXF 393 > 100 µM | Hs-578T > 100 µM | PC-3 > 100 µM | 786-0 > 100 µM | KM12 > 100 µM | MOLT-4 > 100 µM | A498 > 100 µM | OVCAR-8 > 100 µM | SN12C > 100 µM | DU-145 > 100 µM | CAKI-1 > 100 µM | MDA-MB-231 > 100 µM | SW-620 > 100 µM | OVCAR-3 > 100 µM | HCT-116 > 100 µM | HT-29 > 100 µM | U-251 > 100 µM | SR > 100 µM | OVCAR-4 > 100 µM | SK-MEL-28 > 100 µM | TK-10 > 100 µM | EKVX > 100 µM | UACC-62 > 100 µM | SNB-19 > 100 µM | NCI-H23 > 100 µM | RPMI-8226 > 100 µM | T47D > 100 µM | NCI-H460 > 100 µM | UACC-257 > 100 µM | COLO 205 > 100 µM | A549 > 100 µM | M14 > 100 µM | OVCAR-5 > 100 µM | BT-549 > 100 µM | CCRF-CEM > 100 µM | UO-31 > 100 µM | HL-60 > 100 µM | MDA-N > 100 µM | MCF7 > 100 µM | SNB-75 > 100 µM

CCOC1Oc2ccccc2-c2nc(N)ncc21 (stereo unspecified)
inactive: SK-OV-3 > 100 µM | SF-268 44.1 µM | NCI/ADR-RES 39.7 µM | SK-MEL-2 > 100 µM | SK-MEL-5 42.8 µM | HOP-92 69 µM | LOX IMVI 27 µM | SF-295 34.1 µM | MDA-MB-435 21.7 µM | IGROV-1 43.6 µM | ACHN 59.4 µM | NCI-H522 23.4 µM | RXF 393 37.7 µM | Hs-578T 29.2 µM | PC-3 41.5 µM | 786-0 58.7 µM | KM12 39.4 µM | MOLT-4 52.5 µM | A498 22.7 µM | OVCAR-8 61.9 µM | SN12C 77.1 µM | NCI-H226 61.9 µM | DU-145 68.4 µM | CAKI-1 30.6 µM | MDA-MB-231 99.3 µM | SW-620 46.3 µM | OVCAR-3 57 µM | HCT-116 36.5 µM | HT-29 34.8 µM | U-251 65.6 µM | SR 24.9 µM | OVCAR-4 > 100 µM | TK-10 33.2 µM | EKVX 45.1 µM | UACC-62 29.1 µM | SNB-19 > 100 µM | NCI-H23 > 100 µM | SF-539 33.4 µM | RPMI-8226 40 µM | T47D 51.3 µM | NCI-H460 24.9 µM | UACC-257 55.2 µM | COLO 205 57.5 µM | A549 45.8 µM | M14 56.8 µM | OVCAR-5 > 100 µM | BT-549 31.3 µM | CCRF-CEM 36.8 µM | UO-31 43.5 µM | HL-60 20.8 µM | MDA-N 31.6 µM | MCF7 37.4 µM | SNB-75 34 µM
14 µM: HCT-15
